The values that follow come from publication PMC5481270, “Antiparasitic Sesquiterpenes from the Cameroonian Spice Scleria striatinux and Preliminary In Vitro and In Silico DMPK Assessment” (Natural Products and Bioprospecting, 2017).

Molecules are shown by their SMILES. In brackets after ≈: the same amount, converted by molar mass. Like-named read-outs stand apart in the source and are kept apart here. A value given as a limit tells only on which side of the number the result lay.

Data set [1] has as its system Plasmodium falciparum NF54 (chloroquine-sensitive). As to the kind of experiment: Antiplasmodial [3H] hypoxanthine incorporation assay, NF54 strain. The format is cell-based. The following applies: for IC50: Plasmodium falciparum. The text has this: (§1) The antiplasmodial testing of the extracts was run in duplicate. The method was based upon the [^3H] hypoxanthine incorporation assay, as described by Desjardins and modified by Ridley and the data fitted to generate IC50 and IC90 values, corresponding to the concentrations required to cause 50 and 90% inhibition of parasite growth respectively. The Plasmodium falciparum clones used for the testing were W-2 and D-6. W-2 strain otherwise known as the Indochina clone is known to be resistant to chloroquine, pyrimethamine, sulfadoxine and quinine. Meanwhile the D-6 otherwise known as the Sierra Leonian clone is resistant to mefloquine but sensitive to the above named drugs. Chloroquine, quinine and artesunate were used as reference drugs. […] Compounds 1 and 2 (due to their quantity) were subsequently tested against T. cruzi, L. donovani and T. b. rhodensiense, parasites responsible for Chagas disease, leishmaniasis and human African trypanosomiasis (sleeping sickness) respectively with Benznidazole, Miltefosine and Melarsoprol included as reference drugs. Cytotoxicity was evaluated using HT-29 (human […] carcinoma) with podophyllotoxin as reference drug.
(§2) The crude S. striatinux extracts (MeOH and CH2Cl2) were tested at the Walter Reed Army Institute of Research (WRAIR), Washington. DC. […] The method used for antiplasmodial testing, was based upon [^3H] hypoxanthine incorporation assay, previously described in the literature. Both chloroquine-sensitive (NF54, D6) and chloroquine-resistant (K1, W2) strains and chloroquine, quinine and artesunate used as positive references. L. donovani MHOM-ET-67/L82 (obtained from the spleen of an infected hamster and grown in axenic cultures) was used for the antileishmanial testing while T. brucei squib 427 strain (suramin-sensitive) was used for the antitrypanosomal testing. Cytotoxicity test was done using HT-29 (human […] carcinoma), with podophyllotoxin included as reference drug at a concentration of 0.1 μg/mL.

Data set [2] relates to Plasmodium falciparum W-2 (chloroquine-resistant, Indochina clone). As to the kind of experiment: Antiplasmodial [3H] hypoxanthine incorporation assay, W2 clone. The format is cell-based.
From the text: as §1, §2

Data set [3] concerns Plasmodium falciparum D-6 (chloroquine-sensitive, Sierra Leonian clone). The experiment in a line: Antiplasmodial [3H] hypoxanthine incorporation assay, D6 clone. The format is cell-based.
From the text: as §1, §2

A further data set relates to T. b. rhodesiense. The experiment in a line: Antitrypanosomal testing, T. b. rhodesiense. The note with it: calculated versus cytotoxicity (HT-29). The format is cell-based, Trypanosoma brucei rhodesiense.
From the text: as §1
(§3) The crude S. striatinux extracts (MeOH and CH2Cl2) were tested at the Walter Reed Army Institute of Research (WRAIR), Washington. DC. […]

The nature of data set [4]: Chromatographic eLogD technique. The format is physicochemical. The note with it: for chromatographic logD: SUPELCOSIL LC-ABZ column with octanol saturated mobile phase, pH 7.4. As for the experimental part: The partition coefficients of the two compounds were measured via the previously described chromatographic technique. […] The LogD7.4 value for compound 2 of 0.35 is towards the lower end of the scale normally associated with “drug-like” molecules. […] For compound 2, parameters were also calculated for its terminal aldehyde tautomer, 2a, which is presumed to be the major form of the compound. The overall calculated parameters fall within the ranges associated with “drug-like” molecules.
(§4) The kinetic solubility of test compounds was examined by spiking compound in DMSO into either pH 6.5 phosphate buffer or 0.01 M HCl (approximately pH 2.0) with the final DMSO concentration being 1%. Samples were then analysed via nephelometry to determine a solubility range [23]. Effective log D values were measured using a chromatographic method employing a SUPELCOSIL LC-ABZ column using an octanol saturated mobile phase at pH 7.4 [23]. Theoretical physicochemical values were determined using the ACD logD suite of software programs. The molecular weight (MW) should ideally be ≤500 for good membrane permeability, while the hydrogen bond donor/acceptor properties should be respectively ≤5 and ≤10 respectively. The number of single bonds that are not in a ring or constrained system and are not bonded to a hydrogen atom (often referred to as the number of rotatable single bonds) should be ≤10 for acceptable oral bioavailability. The polar surface area (PSA) was calculated using a simplified 2-dimensional modeling approach, which has been validated against a more sophisticated 3-dimentional modeling strategy. For acceptable oral drug absorption and membrane permeability, the PSA value should be ≤120 Å^2. […] The 1-octanol/water partition coefficient were calculated for ionisable compounds. The values were calculated on the basis of log P and pKa values. Log D values are quoted with respect to a relevant pH, thereby providing a partition coefficient profile under physiologically relevant conditions.

The nature of data set [5]: Metabolic stability in human liver microsomes. Type of data set: in vitro ADME. The note with it: for Metabolites detected: LCMS; for microsomal CLint at 2 µM: NADPH dependent degradation, 37 °C, read-out: In vitro CL int; for Microsome predicted E H (hepatic extraction ratio): Q = 20.7 mL/min/kg; for CLint scaled at 2 µM: scaled from in vitro CL int, read-out: Microsome predicted CL int. From the text: The objective here was to determine the in vitro metabolic stability of these two compounds using human liver microsomes as a preliminary indication of their likely in vivo metabolic clearance and potential metabolic products. The method used was as outlined in Obach. […] The compounds maybe susceptible to […] in more complicated test systems based on their structure, since both compounds 1 and 2 contain an α, β-unsaturated ketone moiety with the potential to act as a Michael acceptor (by forming adducts with endogenous nucleophiles such as glutathione). However, this was not investigated and would be the subject of future studies in which we hope to use a simple chemical system (i.e., in aqueous buffer containing free glutathione) or examining the extent of degradation in whole blood.
Test compounds (2 µM) were incubated at 37 °C with human liver microsomes [purchased from BD Gentest (Woburn, MA) using microsome lot # 41207]. The reaction was initiated by the addition of an NADPH-regenerating system (i.e. NADPH is the cofactor required for CYP450-mediated metabolism) and quenched at various time points over the incubation period by the addition of acetonitrile. Additional samples co-activated by NADPH and UDPGA (the co-factor for glucoronidation), were included in the incubation for the qualitative assessment of the potential for glucoronide formation. The relative loss of parent compound and formation of metabolic products was determined using a single quadrupole LCMS instrument (Waters, Manchester, UK).
Test compound concentration versus time data was fitted to an exponential decay function to determine the first-order rate constant for substrate depletion (k). Each substrate depletion rate constant was then used to calculate: (1) an initial in vitro clearance value (in vitro, CL int,in vitro); (2) an intrinsic clearance value (CL int); and (3) a hepatic extraction ratio (E H)1 CLint,invitro=k/microsomalproteincontent(0.4mgprotein/mL) 2 CLint=CLint,invitro×livermass(g)/bodyweight(kg)×45mgmicrosomalprotein/glivermass 3 EH=CLint/Q+CLint For Eqs.

Data set [6] deals with Plasmodium falciparum K1 (chloroquine-resistant). The experiment in a line: Antiplasmodial [3H] hypoxanthine incorporation assay, K1 strain. The note with it: P. falciparum K1, results from STI. The format is cell-based.
From the text: as §1, §3

The test system of another data set is T. cruzi. As to the kind of experiment: Antitrypanosomal testing, T. cruzi. The following applies: calculated versus cytotoxicity (HT-29). The format is cell-based, Trypanosoma cruzi.
From the text: as §1, §3

Data set [7] is described as follows: Kinetic solubility, turbidimetric method (nephelometry). Type of data set: physicochemical. The following applies: kinetic from dmso stock, 1% DMSO. As for the experimental part: The solubility of the compounds was estimated via the turbidimetric method using standard test buffers (pH 2.0 and pH 6.5) as previously described. […] There was no significant change in ionization in the molecule across this pH range.
as §4

Data set [8] deals with L. donovani MHOM-ET-67/L82. As to the kind of experiment: Antileishmanial testing. The note with it: calculated versus cytotoxicity (HT-29). The format is cell-based, Leishmania donovani.
From the text: as §1, §3

The mark [9] stands for this setting: P. falciparum NF54, results from STI, read-out: IC50 NF54.
The mark [10] stands for this setting: P. falciparum W2, mean of 2–3 determinations, results from WRAIR, read-out: IC50 W2.
Setting [11] is: P. falciparum D6, mean of 2–3 determinations, results from WRAIR, read-out: IC50 D6.
The mark [12] stands for this setting: aqueous buffer, pH 6.5 phosphate buffer, read-out: Solubility pH 6.5.
[13] abbreviates: simulated gastric fluid, pH 2 (0.01 M HCl), read-out: Solubility pH 2.

With `C[C@H]1[C@H](OC(=O)CCC(=O)O)O[C@@H]2O[C@@]3(C)CC[C@H]4[C@H](C)CC[C@@H]1[C@@]24OO3` [Artesunate, reference compound], the half-maximal inhibitory concentration (IC50) in data set [1] (setting [9]) is 0.0019 µg/mL (≈ 0.00494 µM).
`CCN(CC)CCCC(C)Nc1ccnc2cc(Cl)ccc12` (centres unmarked) [Chloroquine, reference compound]: the IC50 in [2] (W2, read-out: IC50 W2) was 0.084 µg/mL (≈ 0.263 µM); in [3] (D6, read-out: IC50 D6), 0.003 µg/mL (≈ 0.00938 µM); in [1] (NF54, read-out: IC50 NF54), 0.0023 µg/mL (≈ 0.00719 µM).
Consider `C/C(=C\CO)[C@H]1C[C@H]2C(C)(C)C(=O)C=C[C@]2(C)OO1` [Compound 1, okundoperoxide], for which the “SI (selective index) T. b. rhod” value with T. b. rhodesiense is listed as 3.4. In addition, the IC50 in data set [2] (setting [10]) amounted to 0.268 µg/mL (≈ 1.01 µM). Further, in data set [4], the “elogD pH 7.4” value is on record as 1.71 and the chromatographic logD was 1.71. Moreover, the IC50 in [3] (setting [11]) turned out to be 0.195 µg/mL (≈ 0.732 µM). In [5], the Metabolites detected result is “None detected”, the microsomal CLint at 2 µM amounted to 12.3 µL/min/mg, the “Microsome predicted E H (hepatic extraction ratio)” value was 0.41 and the CLint scaled at 2 µM was 14.3 mL/min/kg. Further, the IC50 in [1] (setting [9]) was 0.304 µg/mL (≈ 1.14 µM). For the same compound, the midpoint of inhibition in [6], the IC50, lay at 0.661 µg/mL (≈ 2.48 µM). In addition, in the data set with T. cruzi, the “SI (selective index) T. cruzi” value is 1. In data set [7] (setting [12]), the solubility is over 100 µg/mL. In addition, in data set [7] (setting [13]), the solubility was over 100 µg/mL. In data set [8], the “SI (selective index) L. donovani” value was 11.4.
Take `C/C(=C\CO)C(=O)C[C@H]1C(C)(C)C(=O)C=C[C@]1(C)O` [Compound 2, sclerienone C]: in the data set with T. b. rhodesiense, the “SI (selective index) T. b. rhod” value is recorded as 8.3. Also, the IC50 in data set [2] (setting [10]) was 0.354 µg/mL (≈ 1.33 µM). Further, in [4], the “elogD pH 7.4” value is listed as 0.35 and the chromatographic logD was found to be 0.35. The 50% inhibitory concentration (IC50) in data set [3] (setting [11]) stood at 0.267 µg/mL (≈ 1 µM). Also, in [5], the Metabolites detected result is listed as “None detected”, the microsomal CLint at 2 µM came to 7.4 µL/min/mg, the “Microsome predicted E H (hepatic extraction ratio)” value is reported as 0.29 and the CLint scaled at 2 µM was 8.6 mL/min/kg. Also, the IC50 in data set [1] (setting [9]) worked out at 0.439 µg/mL (≈ 1.65 µM). This compound had an IC50 in data set [6] of 0.511 µg/mL (≈ 1.92 µM). Moreover, the “SI (selective index) T. cruzi” value in the data set with T. cruzi is 0.74. For the same compound, the solubility in data set [7] (setting [12]) was over 100 µg/mL. Besides, in data set [7] (setting [13]), the solubility is 50 to 100 µg/mL (≈ 188 to 375 µM). Besides, the “SI (selective index) L. donovani” value in [8] is recorded as 5.9.
For the compound `CCCCCCCCCC(=O)OC/C=C(\C)C(=O)C[C@H]1C(C)(C)C(=O)C=C[C@]1(C)O` [Compound 3], the IC50 is 0.46 µg/mL (≈ 1.09 µM) in data set [2] (setting [10]), 0.539 µg/mL (≈ 1.28 µM) in data set [3] (setting [11]) and over 1 µg/mL in [1] (setting [9]).
For `C=CC(C)(O)C(=O)C[C@H]1C(C)(C)C(=O)C=C[C@]1(C)O` (some centres unmarked) [Compound 4], the IC50 in data set [1] (setting [9]) was over 1 µg/mL.
As for `C=CC(C)(O)C(=O)C[C@H]1C(C)(C)C(=O)C=C[C@]1(C)O` (some centres unmarked) [Compound 5], the “IC50 NF54” value in [1] (P. falciparum NF54, results from STI) was over 1 µg/mL.
Take `C=CC(C)(O)C1C[C@H]2C(C)(C)C(=O)C=C[C@]2(C)OO1` (some centres unmarked) [Compound 6]: the results for the IC50 in data set [2] (setting [10]), in data set [3] (setting [11]) and in data set [1] (setting [9]) were 0.47 µg/mL (≈ 1.76 µM), 0.483 µg/mL (≈ 1.81 µM) and over 1 µg/mL, respectively.
For the compound `C=C[C@H]1C[N@@]2CC[C@H]1C[C@H]2[C@H](O)c1ccnc2ccc(OC)cc12` [Quinine, reference compound], the IC50 was 0.097 µg/mL (≈ 0.299 µM) in data set [2] (setting [10]) and 0.027 µg/mL (≈ 0.0832 µM) in [3] (setting [11]).

The term IC50 denotes the concentration that gives 50% inhibition. As usually defined, the chromatographic logD is a lipophilicity value derived from retention on a column. Read a high chromatographic logD as higher lipophilicity. One may read the solubility as how much of the substance goes into solution per volume.
